pEC50: −log10 of the molar value.
Test system: ATF4 luciferase reporter in HEK293T cells
Assay: ATF4-Luc assay (in vitro model of VWMD)
Format: cell-based, human
Conditions: Homo sapiens, HEK-293T, 7 h, HEK293T cells carrying the ATF4 luciferase reporter, 1 μg/mL tunicamycin, One Glo luminescence
Summary of the method: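 Tunicamycin (1 μg/mL) stress with co-added compound for 7 hours in HEK293T cells stably carrying an ATF4 5′-UTR–luciferase reporter. EC50 values come from the luminescent signal (One Glo).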

Row | Compound | pEC50
1 | O=C(NC12CC(n3cc(OCCOC(F)(F)F)cn3)(C1)C2)C1COc2cc(Cl)c(Cl)cc2O1 (centres unmarked) [Compound 458, 6,7-dichloro-N-(3-{4-[2-(trifluoromethoxy)ethoxy]-1H-pyrazol-1-yl}bicyclo[1.1.1]pentan-1-yl)-2,3-dihydro-1,4-benzodioxine-2-carboxamide] | 7.30 to 8.00
2 | COc1ccc2nn(C34CC(NC(=O)[C@H]5C[C@@H](O)c6cc(Cl)ccc6O5)(C3)C4)cc2c1 [Compound 501, (2R,4R)-6-chloro-4-hydroxy-N-[3-(5-methoxy-2H-indazol-2-yl)bicyclo[1.1.1]pentan-1-yl]-3,4-dihydro-2H-1-benzopyran-2-carboxamide] | 7.30 to 8.00
3 | O=C(COc1ccc(C(F)(F)F)cc1O)NC12CC(n3cc([C@H]4C[C@@H](OC(F)(F)F)C4)nn3)(C1)C2 [Compound 615, 2-[2-hydroxy-4-(trifluoromethyl)phenoxy]-N-(3-{4-[(1s,3s)-3-(trifluoromethoxy)cyclobutyl]-1H-1,2,3-triazol-1-yl}bicyclo[1.1.1]pentan-1-yl)acetamide] | 7.30 to 8.00
4 | O=C(COc1ccc(Cl)c(Cl)c1)NC12CC(n3cc(C(=O)N4CC[C@H](OC(F)(F)F)C4)cn3)(C1)C2 [Compound 606, 2-(3,4-dichlorophenoxy)-N-(3-{4-[(3S)-3-(trifluoromethoxy)pyrrolidine-1-carbonyl]-1H-pyrazol-1-yl}bicyclo[1.1.1]pentan-1-yl)acetamide] | > 8.00
5 | O=C(NC12CC(n3cc(-c4ccc(C(F)(F)F)cn4)cn3)(C1)C2)C1CNc2cc(Cl)c(F)cc2O1 (centres unmarked) [Compound 574, 6-chloro-7-fluoro-N-(3-{4-[5-(trifluoromethyl)pyridin-2-yl]-1H-pyrazol-1-yl}bicyclo[1.1.1]pentan-1-yl)-3,4-dihydro-2H-1,4-benzoxazine-2-carboxamide] | > 8.00
6 | O=C(NC12CC(c3cnc(OCCCOC(F)(F)F)o3)(C1)C2)[C@H]1C[C@@H](O)c2cc(Cl)c(F)cc2O1 [Compound 417, (2R,4R)-6-chloro-7-fluoro-4-hydroxy-N-(3-{2-[3-(trifluoromethoxy)propoxy]-1,3-oxazol-5-yl}bicyclo[1.1.1]pentan-1-yl)-3,4-dihydro-2H-1-benzopyran-2-carboxamide] | > 8.00
7 | O=C(NC12CC(n3cc(-c4ccc(OC(F)(F)F)cn4)cn3)(C1)C2)[C@H]1C[C@@H](O)c2ccccc2O1 [Compound 367, (2R,4R)-4-hydroxy-N-(3-{4-[5-(trifluoromethoxy)pyridin-2-yl]-1H-pyrazol-1-yl}bicyclo[1.1.1]pentan-1-yl)-3,4-dihydro-2H-1-benzopyran-2-carboxamide] | > 8.00
8 | O=C(NC12CC(c3ccnc(OCCOC(F)(F)F)n3)(C1)C2)[C@H]1C[C@@H](O)c2cc(Cl)ccc2O1 [Compound 525, (2R,4R)-6-chloro-4-hydroxy-N-(3-{2-[2-(trifluoromethoxy)ethoxy]pyrimidin-4-yl}bicyclo[1.1.1]pentan-1-yl)-3,4-dihydro-2H-1-benzopyran-2-carboxamide] | 7.30 to 8.00
9 | O=C(COc1ccc(Cl)c(F)c1)N[C@H]1CC[C@H](n2cc(C(=O)N3CC[C@H](OC(F)(F)F)C3)cn2)CC1 [Compound 609, 2-(4-chloro-3-fluorophenoxy)-N-[(1S,4r)-4-{4-[(3S)-3-(trifluoromethoxy)pyrrolidine-1-carbonyl]-1H-pyrazol-1-yl}cyclohexyl]acetamide] | > 8.00
10 | O=C(NC12CC(n3cc(C(=O)N4CCC(C(F)(F)F)C4)cn3)(C1)C2)[C@H]1C[C@@H](O)c2cc(Cl)ccc2O1 (stereo partly drawn) [Compound 535, (2R,4R)-6-chloro-4-hydroxy-N-(3-{4-[3-(trifluoromethyl)pyrrolidine-1-carbonyl]-1H-pyrazol-1-yl}bicyclo[1.1.1]pentan-1-yl)-3,4-dihydro-2H-1-benzopyran-2-carboxamide] | 7.30 to 8.00
11 | O=C(COc1ccc(Cl)c(F)c1)NC12CC(n3cc(C4CCN(CC(F)(F)F)CC4)cn3)(C1)C2 [Compound 608, 2-(4-chloro-3-fluorophenoxy)-N-(3-{4-[1-(2,2,2-trifluoroethyl)piperidin-4-yl]-1H-pyrazol-1-yl}bicyclo[1.1.1]pentan-1-yl)acetamide] | 7.30 to 8.00
12 | O=C(NC12CC(n3cc(-c4ccc(C(F)(F)F)cn4)cn3)(C1)C2)[C@H]1C[C@@H](O)c2cc(C(F)(F)F)c(F)cc2O1 [Compound 484, (2R,4R)-7-fluoro-4-hydroxy-6-(trifluoromethyl)-N-(3-{4-[5-(trifluoromethyl)pyridin-2-yl]-1H-pyrazol-1-yl}bicyclo[1.1.1]pentan-1-yl)-3,4-dihydro-2H-1-benzopyran-2-carboxamide] | > 8.00
13 | O=C(CO[C@H]1C[C@@H](OC(F)(F)F)C1)NC12CC(NC(=O)[C@H]3C[C@H](O)c4cc(C(F)(F)F)c(F)cc4O3)(C1)C2 [Compound 643, (2R,4S)-7-fluoro-4-hydroxy-N-[3-(2-{[(1s,3S)-3-(trifluoromethoxy)cyclobutyl]oxy}acetamido)bicyclo[1.1.1]pentan-1-yl]-6-(trifluoromethyl)-3,4-dihydro-2H-1-benzopyran-2-carboxamide] | > 8.00
14 | CC(F)(F)CCCOc1cnn(C23CC(NC(=O)[C@H]4C[C@@H](O)c5cc(Cl)ccc5O4)(C2)C3)c1 [Compound 521, (2R,4R)-6-chloro-N-(3-{4-[(4,4-difluoropentyl)oxy]-1H-pyrazol-1-yl}bicyclo[1.1.1]pentan-1-yl)-4-hydroxy-3,4-dihydro-2H-1-benzopyran-2-carboxamide] | 7.30 to 8.00
15 | O=C(NC12CC(n3cc(CCCOC(F)(F)F)cn3)(C1)C2)[C@H]1C[C@@H](O)c2cc(C(F)(F)F)ccc2O1 [Compound 513, (2R,4R)-4-hydroxy-N-(3-{4-[3-(trifluoromethoxy)propyl]-1H-pyrazol-1-yl}bicyclo[1.1.1]pentan-1-yl)-6-(trifluoromethyl)-3,4-dihydro-2H-1-benzopyran-2-carboxamide] | > 8.00
16 | O=C(NC12CC(n3cc(CCCCOC(F)(F)F)nn3)(C1)C2)[C@H]1C[C@@H](O)c2cc(Cl)ccc2O1 [Compound 465, (2R,4R)-6-chloro-4-hydroxy-N-(3-{4-[4-(trifluoromethoxy)butyl]-1H-1,2,3-triazol-1-yl}bicyclo[1.1.1]pentan-1-yl)-3,4-dihydro-2H-1-benzopyran-2-carboxamide] | > 8.00
17 | O=C1C[C@H](C(=O)N[C@H]2C[C@H]3CC[C@@H](C2)N3CCCOc2ccc(Cl)cc2)Oc2ccc(Cl)cc21 [Compound 101, (2R)-6-chloro-N-{(1R,3r,5S)-8-[3-(4-chlorophenoxy)propyl]-8-azabicyclo[3.2.1]octan-3-yl}-4-oxo-3,4-dihydro-2H-1-benzopyran-2-carboxamide] | < 5.70
18 | O=C(NC12CC(c3ccc(C(=O)N4CC(OCC(F)(F)F)C4)nc3)(C1)C2)[C@H]1C[C@@H](O)c2cc(Cl)ccc2O1 [Compound 533, (2R,4R)-6-chloro-4-hydroxy-N-(3-{6-[3-(2,2,2-trifluoroethoxy)azetidine-1-carbonyl]pyridin-3-yl}bicyclo[1.1.1]pentan-1-yl)-3,4-dihydro-2H-1-benzopyran-2-carboxamide] | > 8.00
19 | O=C(NC12CC(c3cnc(OCCOC(F)(F)F)o3)(C1)C2)[C@H]1C[C@@H](O)c2cc(Cl)c(F)cc2O1 [Compound 416, (2R,4R)-6-chloro-7-fluoro-4-hydroxy-N-(3-{2-[2-(trifluoromethoxy)ethoxy]-1,3-oxazol-5-yl}bicyclo[1.1.1]pentan-1-yl)-3,4-dihydro-2H-1-benzopyran-2-carboxamide] | > 8.00
20 | COc1cc2cn(C34CC(NC(=O)[C@H]5C[C@@H](O)c6cc(Cl)ccc6O5)(C3)C4)nc2cn1 [Compound 497, (2R,4R)-6-chloro-4-hydroxy-N-[3-(5-methoxy-2H-pyrazolo[3,4-c]pyridin-2-yl)bicyclo[1.1.1]pentan-1-yl]-3,4-dihydro-2H-1-benzopyran-2-carboxamide] | 7.30 to 8.00
21 | C[C@H](COC(F)(F)F)Oc1cnn(C23CC(NC(=O)[C@H]4C[C@@H](O)c5cc(Cl)ccc5O4)(C2)C3)c1 [Compound 440, (2R,4R)-6-chloro-4-hydroxy-N-[3-(4-{[(2R)-1-(trifluoromethoxy)propan-2-yl]oxy}-1H-pyrazol-1-yl)bicyclo[1.1.1]pentan-1-yl]-3,4-dihydro-2H-1-benzopyran-2-carboxamide] | 7.30 to 8.00
22 | COc1ncc(-c2cnn(C34CC(NC(=O)[C@@H]5C[C@H](O)c6cc(Cl)ccc6O5)(C3)C4)c2)cn1 [Compound 319, (2S,4S)-6-chloro-4-hydroxy-N-{3-[4-(2-methoxypyrimidin-5-yl)-1H-pyrazol-1-yl]bicyclo[1.1.1]pentan-1-yl}-3,4-dihydro-2H-1-benzopyran-2-carboxamide] | 6.30 to 6.60
23 | O=C(NC12CC(n3cc(-c4ccc(C(F)(F)F)cn4)cn3)(C1)C2)[C@H]1CNc2cc(Cl)ccc2O1 [Compound 572, (2R)-6-chloro-N-(3-{4-[5-(trifluoromethyl)pyridin-2-yl]-1H-pyrazol-1-yl}bicyclo[1.1.1]pentan-1-yl)-3,4-dihydro-2H-1,4-benzoxazine-2-carboxamide] | > 8.00
24 | O=C(NC12CC(c3cn(-c4ccc(OC(F)(F)F)cc4)nn3)(C1)C2)[C@H]1C[C@@H](O)c2cc(Cl)ccc2O1 [Compound 360, (2R,4R)-6-chloro-4-hydroxy-N-(3-{1-[4-(trifluoromethoxy)phenyl]-1H-1,2,3-triazol-4-yl}bicyclo[1.1.1]pentan-1-yl)-3,4-dihydro-2H-1-benzopyran-2-carboxamide] | > 8.00
25 | O=C(NC12CCC(n3cc(OCCCOC(F)(F)F)cn3)(C1)C2)[C@H]1C[C@@H](O)c2cc(Cl)c(F)cc2O1 [Compound 629, (2R,4R)-6-chloro-7-fluoro-4-hydroxy-N-(4-{4-[3-(trifluoromethoxy)propoxy]-1H-pyrazol-1-yl}bicyclo[2.1.1]hexan-1-yl)-3,4-dihydro-2H-1-benzopyran-2-carboxamide] | 7.30 to 8.00
26 | O=C(NC12CC(c3ccc(OCCOC(F)(F)F)nc3)(C1)C2)[C@H]1C[C@@H](O)c2cc(Cl)c(F)cc2O1 [Compound 446, (2R,4R)-6-chloro-7-fluoro-4-hydroxy-N-(3-{6-[2-(trifluoromethoxy)ethoxy]pyridin-3-yl}bicyclo[1.1.1]pentan-1-yl)-3,4-dihydro-2H-1-benzopyran-2-carboxamide] | 7.30 to 8.00

Source: patent US20250145594A1, “MODULATORS OF THE INTEGRATED STRESS PATHWAY” (Calico Life Sciences LLC, priority 2020, published 2025)
